In brackets after ≈: the same amount, converted by molar mass.

Some test systems named below: Nocardia asteroides; Candida glabrata 090902; Staphylococcus aureus; Cryptococcus neoformans; Salmonella typhimurium; Streptococcus mutans; Saccharomyces cerevisiae; Serratia sp.; Escherichia coli; Candida albicans; Pseudomonas putida; Bacillus subtilis; Micrococcus luteus; Staphylococcus aureus 10; Klebsiella pneumoniae; Staphylococcus aureus 37; Shigella dysenteriae; Micrococcus luteus ML36; Escherichia coli SC9251; Escherichia coli SC9253; Escherichia coli SM101; Escherichia coli IH3080; Escherichia coli SC9252.

Holding throughout (assay): ≥ marks a high value that may be exact or a test limit, other limits are often not marked, values filed in µg/mL are converted to µM
For assay [1], the system named is Enterococcus faecalis 981.
Assay [2] deals with Staphylococcus aureus ATCC 25923.
Assay [3] deals with Pseudomonas aeruginosa CGMCC 1.50.
Assay [4] has as its system Pseudomonas aeruginosa ATCC 15692.
The subject of assay [5] is Escherichia coli ATCC 25922.
Assay [6] relates to Candida albicans ATCC 90028.
The subject of assay [7] is Candida parapsilosis ATCC 22019.
The subject of assay [8] is Enterococcus faecalis ATCC 29212.
Assay [9] has as its system Klebsiella pneumoniae ATCC 700603.
In assay [10] the test system is Pseudomonas aeruginosa CMCCB 1010.
Assay [11] deals with Pseudomonas aeruginosa ATCC 27853.
The subject of assay [12] is Enterobacter cloacae ATCC 13047.
Assay [13] has as its system Candida albicans ATCC 2002.

For `CC[C@H](C)[C@H](NC(=O)[C@H](CC(C)C)NC(=O)CNC(=O)[C@@H](NC(=O)[C@@H](NC(=O)[C@@H](N)Cc1ccccc1)[C@@H](C)CC)[C@@H](C)O)C(=O)NCC(=O)NCC(=O)N[C@@H](CC(C)C)C(=O)N[C@@H](CCSC)C(=O)N[C@@H](CCCCN)C(=O)N[C@@H](C)C(=O)N[C@@H](CC(C)C)C(N)=O` [FITGLIGGLMKAL], the MIC against Nocardia asteroides is not below 100 µM; in assay [1], not below 200 µM; in assay [2], 100 µM (≈ 133 µg/mL); in the assay on Candida glabrata 090902 it was not below 400 µM; in assay [3], not below 400 µM.

For the compound `CC(C)C[C@H](NC(=O)[C@H](CCCN=C(N)N)NC(=O)[C@H](C)NC(=O)[C@H](CCCN=C(N)N)NC(=O)[C@H](CC(C)C)NC(=O)[C@H](CO)NC(=O)[C@H](CCC(=O)O)NC(=O)CNC(=O)[C@H](CCCCN)NC(=O)[C@H](CC(C)C)NC(=O)[C@H](CCCN=C(N)N)NC(=O)[C@H](CO)NC(=O)[C@@H](NC(=O)[C@H](CCCCN)NC(=O)[C@@H](NC(=O)[C@@H](NC(=O)CN)C(C)C)C(C)C)C(C)C)C(=O)O` [GVVKVSRLKGESLRARL], the minimal inhibitory concentration (MIC) was 10.7 µM (≈ 20 µg/mL) against Staphylococcus aureus; 3.21 µM (≈ 6 µg/mL) in the assay on Cryptococcus neoformans; 5.35 µM (≈ 10 µg/mL) against Salmonella typhimurium; 3.21 µM (≈ 6 µg/mL) in the assay on Streptococcus mutans; 3.21 µM (≈ 6 µg/mL) against Saccharomyces cerevisiae; 10.7 µM (≈ 20 µg/mL) in the assay with Serratia sp.. Further, the MIC worked out at 5.35 µM (≈ 10 µg/mL) against Escherichia coli, 5.35 µM (≈ 10 µg/mL) against Candida albicans, 5.35 µM (≈ 10 µg/mL) against Pseudomonas putida and 3.21 µM (≈ 6 µg/mL) in the assay on Bacillus subtilis.

Regarding `CC[C@H](C)[C@H](NC(=O)[C@H](C)NC(=O)[C@H](CC(=O)O)NC(=O)[C@H](CC(C)C)NC(=O)CNC(=O)CNC(=O)[C@H](CCCCN)NC(=O)[C@H](C)NC(=O)[C@H](Cc1ccccc1)NC(=O)[C@H](CCCCN)NC(=O)[C@H](CCCCN)NC(=O)[C@H](CC(C)C)NC(=O)CNC(=O)CNC(=O)[C@H](CC(C)C)NC(=O)[C@@H](NC(=O)[C@@H](NC(=O)[C@H](CO)NC(=O)[C@H](Cc1c[nH]c2ccccc12)NC(=O)[C@@H](NC(=O)CN)C(C)C)[C@@H](C)O)[C@@H](C)CC)C(=O)N[C@H](C(=O)N[C@@H](CC(N)=O)C(=O)N1CCC[C@H]1C(=O)N[C@@H](CCCCN)C(=O)O)C(C)C` [GVWSTILGGLKKFAKGGLDAIVNPK], the minimal inhibitory concentration (MIC) against Saccharomyces cerevisiae was 8 µM (≈ 20.6 µg/mL); in assay [4], 16 µM (≈ 41.1 µg/mL); in assay [2], 11.3 µM (≈ 29.1 µg/mL); against Micrococcus luteus, 0.5 µM (≈ 1.29 µg/mL); in assay [5], 2.83 µM (≈ 7.27 µg/mL).

For `CC[C@H](C)[C@H](N)C(=O)N[C@@H](CC(N)=O)C(=O)N[C@@H](CC(C)C)C(=O)N[C@@H](CCCCN)C(=O)N[C@@H](C)C(=O)N[C@H](C(=O)N[C@H](C(=O)N[C@@H](C)C(=O)N[C@@H](CC(C)C)C(=O)N[C@@H](C)C(=O)N[C@@H](CCCCN)C(=O)N[C@@H](CCCCN)C(=O)N[C@@H](CC(C)C)C(=O)N[C@@H](CC(C)C)C(=O)O)[C@@H](C)O)[C@@H](C)CC` [INLKAITALAKKLL], the MIC with Staphylococcus aureus 10 is 1.66 µM (≈ 2.5 µg/mL); in the assay with Klebsiella pneumoniae, 13.2 µM (≈ 20 µg/mL); in the assay with Staphylococcus aureus 37, 3.31 µM (≈ 5 µg/mL); in [6], 6.62 µM (≈ 10 µg/mL); in assay [7], 1.66 µM (≈ 2.5 µg/mL); in assay [8], 3.31 µM (≈ 5 µg/mL). Further, the MIC against Shigella dysenteriae worked out at 6.62 µM (≈ 10 µg/mL); in [9] it was 26.5 µM (≈ 40 µg/mL); in assay [10] it was 6.62 µM (≈ 10 µg/mL); in assay [2] it was 6.62 µM (≈ 10 µg/mL); in assay [11], 53 µM (≈ 80 µg/mL); in assay [12], 3.31 µM (≈ 5 µg/mL). The minimal inhibitory concentration (MIC) in assay [13] amounted to 3.31 µM (≈ 5 µg/mL).

In the case of `NCCCC[C@H](NC(=O)[C@H](Cc1ccccc1)NC(=O)[C@H](Cc1ccccc1)NC(=O)[C@H](CCCCN)NC(=O)[C@H](Cc1ccccc1)NC(=O)[C@H](Cc1ccccc1)NC(=O)[C@@H](N)CCCCN)C(=O)N[C@@H](Cc1ccccc1)C(=O)N[C@@H](Cc1ccccc1)C(=O)O` [KFFKFFKFF], the MIC in the assay with Micrococcus luteus ML36 is 7.78 µM (≈ 10 µg/mL); in the assay with Escherichia coli SC9251, 23.3 µM (≈ 30 µg/mL); with Escherichia coli SC9253, 23.3 µM (≈ 30 µg/mL); with Escherichia coli SM101, 23.3 µM (≈ 30 µg/mL); in the assay with Escherichia coli IH3080, not below 77.8 µM; in the assay with Escherichia coli SC9252 it was 23.3 µM (≈ 30 µg/mL).

The values above are taken from DBAASP.
